“And” between values parts separate entries of the source, which are not always exact repeats. Equal entries are not always repeated. Toxic doses and inconclusive results are not listed. Square brackets hold non-standard residues; d marks the D form. Peptide text beside a SMILES is read from it. ξ: configuration not given here. ξD = NC(CC(=O)O)C(=O)O
Test system: P388 leukemia ip, CD2F1 mice, survival T/C
Assay: NCI In Vivo Anticancer Drug Screen. Data for tumor model P388 Leukemia (intraperitoneal) in CD2F1 (CDF1) mice
Details: endpoint: median survival time, higher = longer survival
Procedure, shortened: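 Mice carrying the transplanted tumor received test compound or vehicle. Survival was recorded in each group, and the value is the treated-group measurement divided by that of the vehicle-treated control group.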

[1] = dose: 50.0 mg/kg/injection, schedule: Q01DX005 (ip), vehicle: Klucel (hydroxypropylcellulose) (HPC)
[2] = dose: 100.0 mg/kg/injection, schedule: Q01DX005 (ip), vehicle: Klucel (hydroxypropylcellulose) (HPC)
[3] = dose: 100.0 mg/kg/injection, schedule: Q04DX003 (ip), vehicle: saline with Tween-80
[4] = dose: 200.0 mg/kg/injection, schedule: Q04DX003 (ip), vehicle: saline with Tween-80
[5] = dose: 60.0 mg/kg/injection, schedule: Q01DX005 (ip), vehicle: Klucel (hydroxypropylcellulose) (HPC)
[6] = dose: 120.0 mg/kg/injection, schedule: Q01DX005 (ip), vehicle: Klucel (hydroxypropylcellulose) (HPC)
[7] = dose: 240.0 mg/kg/injection, schedule: Q01DX005 (ip), vehicle: Klucel (hydroxypropylcellulose) (HPC)

SMILES: COCCOCCOCCOCCOCCOCCOCCOCCOCCOCCOCCOCCOCCOCCOC(=O)CCn1cc(F)c(=O)[nH]c1=O
- T/C (dose: 34.0 mg/kg/injection, schedule: Q04DX002 (ip), vehicle: saline): 97 % of control
- T/C (dose: 68.0 mg/kg/injection, schedule: Q04DX002 (ip), vehicle: saline): 111 % of control
- T/C (dose: 136.0 mg/kg/injection, schedule: Q04DX002 (ip), vehicle: saline): 102 % of control
- T/C (dose: 272.0 mg/kg/injection, schedule: Q04DX002 (ip), vehicle: saline): 100 % of control

SMILES: CS(=O)(=O)/C=C/c1cccc(O)c1
- T/C (dose: 50.0 mg/kg/injection, schedule: Q01DX009 (ip), vehicle: Klucel (hydroxypropylcellulose) (HPC)): 97 % of control
- T/C (dose: 100.0 mg/kg/injection, schedule: Q01DX009 (ip), vehicle: Klucel (hydroxypropylcellulose) (HPC)): 96 % of control
- T/C (dose: 200.0 mg/kg/injection, schedule: Q01DX009 (ip), vehicle: Klucel (hydroxypropylcellulose) (HPC)): 89 % of control

SMILES: C=C(Cl)CC(N)C(=O)O (stereo not drawn)
- T/C [1]: 104 % of control
- T/C [2]: 104 % of control

SMILES: C=C1OC(C2CCCCC2)=C(C(=O)OCC)C1C (stereo not drawn)
- T/C (dose: 100.0 mg/kg/injection, schedule: Q01DX001 (ip), vehicle: saline with Tween-80): 100 % of control
- T/C (dose: 200.0 mg/kg/injection, schedule: Q01DX001 (ip), vehicle: saline with Tween-80): 94 % of control
- T/C (dose: 400.0 mg/kg/injection, schedule: Q01DX001 (ip), vehicle: saline with Tween-80): 100 % of control

SMILES: NCC(=O)NC(CC(=O)O)C(=O)O (stereo not drawn) (H-Gly-[ξD]-OH)
- T/C [3]: 100 % of control
- T/C [4]: 93 % of control
- T/C (dose: 400.0 mg/kg/injection, schedule: Q04DX003 (ip), vehicle: saline with Tween-80): 94 % of control

SMILES: CC1C[C@@H]2OC(=O)C(C)[C@@H]2C(O)[C@@]2(C)C(=O)C=CC12 (stereo partly drawn)
- T/C (dose: 1.38 mg/kg/injection, schedule: Q01DX005 (ip), vehicle: Klucel (hydroxypropylcellulose) (HPC)): 104 % of control
- T/C (dose: 2.75 mg/kg/injection, schedule: Q01DX005 (ip), vehicle: Klucel (hydroxypropylcellulose) (HPC)): 104 % of control
- T/C (dose: 5.5 mg/kg/injection, schedule: Q01DX005 (ip), vehicle: Klucel (hydroxypropylcellulose) (HPC)): 112 % of control
- T/C (dose: 11.0 mg/kg/injection, schedule: Q01DX005 (ip), vehicle: Klucel (hydroxypropylcellulose) (HPC)): 111 % of control

SMILES: CC(Cc1ccccc1)N(C)C(=O)c1ccc[n+](C)c1 (stereo not drawn)
- T/C (dose: 50.0 mg/kg/injection, schedule: Q01DX005 (ip), vehicle: saline): 107 % of control
- T/C (dose: 100.0 mg/kg/injection, schedule: Q01DX005 (ip), vehicle: saline): 109 % of control

SMILES: CCOC(=O)N1NC(=O)CC1(C)C
- T/C (dose: 100.0 mg/kg/injection, schedule: Q01DX001 (ip), vehicle: saline): 95 % of control
- T/C (dose: 200.0 mg/kg/injection, schedule: Q01DX001 (ip), vehicle: saline): 100 % of control
- T/C (dose: 400.0 mg/kg/injection, schedule: Q01DX001 (ip), vehicle: saline): 90 % of control

SMILES: O=P(c1ccccc1)(c1ccccc1)c1ccccc1 (tested in a mixture with another compound)
- T/C (dose: 25.0 mg/kg/injection, schedule: Q01DX009 (ip), vehicle: other): 89 % of control

SMILES: Cc1ccc2nc3ccccc3c(SCCCCCCSc3c4ccccc4nc4ccc(C)cc34)c2c1
- T/C [5]: 89 % of control
- T/C (dose: 60.0 mg/kg/injection, schedule: Q01DX005 (ip), vehicle: saline with Tween-80): 107 % of control
- T/C [6]: 87 % of control
- T/C (dose: 120.0 mg/kg/injection, schedule: Q01DX005 (ip), vehicle: saline with Tween-80): 90 % of control
- T/C [7]: 87 % of control

SMILES: Cc1ccc(S(=O)(=O)N/N=C/c2c(Cl)nc3sccn23)cc1
- T/C (dose: 100.0 mg/kg/injection, schedule: Q01DX001 (ip), vehicle: Klucel (hydroxypropylcellulose) (HPC)): 111 % of control
- T/C (dose: 200.0 mg/kg/injection, schedule: Q01DX001 (ip), vehicle: Klucel (hydroxypropylcellulose) (HPC)): 108 % of control
- T/C (dose: 400.0 mg/kg/injection, schedule: Q01DX001 (ip), vehicle: Klucel (hydroxypropylcellulose) (HPC)): 111 % of control

SMILES: CC(C)NC(=O)OCc1c(COC(=O)NC(C)C)c(-c2ccc(F)c(F)c2)n2c1CCC2
- T/C (dose: 3.13 mg/kg/injection, schedule: Q01DX009 (ip), vehicle: distilled water + Tween-80): 151 % of control
- T/C (dose: 6.25 mg/kg/injection, schedule: Q01DX009 (ip), vehicle: distilled water + Tween-80): 160 % of control
- T/C (dose: 12.5 mg/kg/injection, schedule: Q01DX009 (ip), vehicle: distilled water + Tween-80): 172 % of control and 178 % of control
- T/C (dose: 25.0 mg/kg/injection, schedule: Q01DX009 (ip), vehicle: distilled water + Tween-80): 123 % of control and 211 % of control
- T/C (dose: 50.0 mg/kg/injection, schedule: Q01DX009 (ip), vehicle: distilled water + Tween-80): 109 % of control and 92 % of control

SMILES: COc1cc2c(cc1OCc1ccccc1)C(Cc1cc(Br)sc1Br)=NCC2
- T/C [1]: 88 % of control
- T/C [2]: 90 % of control
- T/C (dose: 200.0 mg/kg/injection, schedule: Q01DX005 (ip), vehicle: Klucel (hydroxypropylcellulose) (HPC)): 92 % of control

SMILES: CC(C)=CC(C)(O)c1nc2ccccc2s1 (stereo not drawn)
- T/C [5]: 95 % of control
- T/C [6]: 93 % of control
- T/C [7]: 96 % of control

SMILES: C1COC2(CCC3(CC2)OCCO3)O1
- T/C (dose: 25.0 mg/kg/injection, schedule: Q04DX003 (ip), vehicle: Klucel (hydroxypropylcellulose) (HPC)): 100 % of control
- T/C (dose: 50.0 mg/kg/injection, schedule: Q04DX003 (ip), vehicle: Klucel (hydroxypropylcellulose) (HPC)): 103 % of control
- T/C (dose: 100.0 mg/kg/injection, schedule: Q01DX009 (ip), vehicle: saline sonified): 111 % of control
- T/C (dose: 100.0 mg/kg/injection, schedule: Q04DX003 (ip), vehicle: Klucel (hydroxypropylcellulose) (HPC)): 101 % of control
- T/C (dose: 200.0 mg/kg/injection, schedule: Q01DX009 (ip), vehicle: saline sonified): 100 % of control
- T/C (dose: 200.0 mg/kg/injection, schedule: Q04DX003 (ip), vehicle: Klucel (hydroxypropylcellulose) (HPC)): 100 % of control
- T/C (dose: 400.0 mg/kg/injection, schedule: Q01DX009 (ip), vehicle: saline sonified): 100 % of control
- T/C (dose: 400.0 mg/kg/injection, schedule: Q04DX003 (ip), vehicle: Klucel (hydroxypropylcellulose) (HPC)): 99 % of control

SMILES: O=C1c2cccc(NCC3CO3)c2C(=O)c2cccc(NCC3CO3)c21 (stereo not drawn)
- T/C (dose: 0.75 mg/kg/injection, schedule: Q01DX005 (ip), vehicle: Klucel (hydroxypropylcellulose) (HPC)): 99 % of control
- T/C (dose: 1.5 mg/kg/injection, schedule: Q01DX005 (ip), vehicle: Klucel (hydroxypropylcellulose) (HPC)): 107 % of control
- T/C (dose: 3.0 mg/kg/injection, schedule: Q01DX005 (ip), vehicle: Klucel (hydroxypropylcellulose) (HPC)): 100 % of control
- T/C (dose: 6.0 mg/kg/injection, schedule: Q01DX005 (ip), vehicle: Klucel (hydroxypropylcellulose) (HPC)): 96 % of control

SMILES: CCCCN(CCCC)Cc1c(C)[nH]c2ccc(N(C)C)cc2c1=O
- T/C (dose: 50.0 mg/kg/injection, schedule: Q01DX009 (ip), vehicle: suspension in saline): 108 % of control
- T/C (dose: 100.0 mg/kg/injection, schedule: Q01DX009 (ip), vehicle: suspension in saline): 103 % of control

SMILES: O=c1c2c([nH]n1-c1ccccc1)-c1ccccc1CS2
- T/C (dose: 25.0 mg/kg/injection, schedule: Q01DX009 (ip), vehicle: saline with Tween-80): 105 % of control
- T/C (dose: 50.0 mg/kg/injection, schedule: Q01DX009 (ip), vehicle: saline with Tween-80): 104 % of control
- T/C (dose: 100.0 mg/kg/injection, schedule: Q01DX009 (ip), vehicle: saline with Tween-80): 117 % of control

SMILES: CC1(C)CC(=O)C2=C(C1)Oc1c(Cl)cc(Cl)cc1C2
- T/C (dose: 50.0 mg/kg/injection, schedule: Q01DX009 (ip), vehicle: saline): 108 % of control
- T/C (dose: 100.0 mg/kg/injection, schedule: Q01DX009 (ip), vehicle: saline): 98 % of control
- T/C (dose: 200.0 mg/kg/injection, schedule: Q01DX009 (ip), vehicle: saline): 92 % of control

SMILES: CC(=O)OCC1OC(OC2=C(CC=C(C)C)C(=O)c3ccccc3C2=O)C(OC(C)=O)C(OC(C)=O)C1OC(C)=O (stereo not drawn)
- T/C (dose: 25.0 mg/kg/injection, schedule: Q04DX003 (ip), vehicle: saline with Tween-80): 100 % of control
- T/C (dose: 50.0 mg/kg/injection, schedule: Q04DX003 (ip), vehicle: saline with Tween-80): 102 % of control
- T/C [3]: 94 % of control
- T/C [4]: 114 % of control

SMILES: O=[N+]([O-])c1nccn1CCCO
- T/C (dose: 12.5 mg/kg/injection, schedule: Q01DX009 (ip), vehicle: water): 98 % of control
- T/C (dose: 25.0 mg/kg/injection, schedule: Q01DX009 (ip), vehicle: water): 97 % of control
- T/C (dose: 50.0 mg/kg/injection, schedule: Q01DX009 (ip), vehicle: water): 100 % of control
- T/C (dose: 100.0 mg/kg/injection, schedule: Q01DX009 (ip), vehicle: water): 103 % of control
- T/C (dose: 200.0 mg/kg/injection, schedule: Q01DX009 (ip), vehicle: water): 100 % of control

Source: PubChem BioAssay AID330 (DTP/NCI, 2004)
